Activity calls are given as the source filed them.
Experiments:
[1] = miR-122 activators in hepatoma reporter cells, dose response, cell-based, Huh7 psiCHECK-miR122, Renilla luciferase, cherry-picked (AID 651956); type: functional;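 note: huh7 hepatoma cells stably carrying a psiCHECK-2 miR-122 sensor plasmid; renilla luciferase signal reporting endogenous miR-122 activity after 48 h compound exposure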
[2] = cells; type: functional, cell-based
[3] = target: Nuclear receptor subfamily 0 group B member 1 (Homo sapiens, UniProt P51843); type: functional, cell-based;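 note: HEK293T cells transfected with SF-1 and DAX-1 plus StAR promoter luciferase reporter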
[4] = Shn3 3'UTR reporter inhibitors, dose response, cell-based, Clone20 osteoblasts, firefly luciferase, cherry-picked (AID 624132); type: functional;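 note: firefly luciferase luminescence from reporter carrying the Shn3 3'UTR in osteoblasts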
[5] = HepG2 cell cytotoxicity, dose response, cytotoxicity control for Shn3 inhibitor project, CellTiter-Glo, cherry-picked (AID 624134); type: functional, cell-based
[6] = target: Protein Wnt-3a (Mus musculus, UniProt P27467); test: Wnt3a-driven reporter signaling inhibition, dose response, selectivity assay for Gli-SUFU antagonist project, Wnt-LIGHT cells, luminescence (AID 651570); type: functional; details: read-out: IC50_Mean;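 note: Wnt-LIGHT reporter cells stimulated with conditioned medium from Wnt3a-producing cells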
[7] = tested on: Streptococcus sp. 'group A'; test: growth inhibition of control SK(-) GAS strain, dose response, counter-screen for streptokinase expression inhibitor project, luminescence, kanamycin, BacTiterGlo, confirmation (AID 1900); type: functional, organism-based
[8] = tested on: Streptococcus; test: Group A Streptococcus viability loss, dose response, counter-screen for streptokinase expression inhibitor project, luminescence, BacTiterGlo (AID 1915); type: functional, organism-based;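 note: potency for reduction of bacterial viability or growth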
[9] = target: T1, Probable nicotinate-nucleotide adenylyltransferase (Staphylococcus aureus (strain N315), UniProt P65502); type: functional, Staphylococcus aureus subsp. aureus N315;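 for IC50 Mean: confirmatory dose-response retesting of NadD inhibitor hits first found in an ultra-high-throughput screen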
[10] = target: T1, Probable nicotinate-nucleotide adenylyltransferase; type: functional, Staphylococcus aureus subsp. aureus N315; details: read-out: IC50_Mean
[11] = inhibitors of firefly luciferase expression or activity, dose response, H4 neuroglioma cells, luminescence (AID 1990); type: functional, cell-based
[12] = tested on: BJ; test: cytotoxicity toward BJ-TERT fibroblasts, dose response, cell-based, RAS-independent, luminescence (AID 1933); type: functional; details: Homo sapiens
[13] = Luminescence Cell-Based Dose Response HTS to Identify Inhibitors of 5'UTR Stem-Loop Driven Prion Protein mRNA Translation in H4 Neuroglioblastoma Cells. [Related pubchem assays: 1827 (Project Summary), 1813 (Primary HTS)]; type: functional
[14] = inhibitors of SNCA 5'UTR-driven reporter translation, confirmation, H4 neuroglioma cells, luminescence (AID 1988); type: functional, cell-based
[15] = tested on: BJ; test: cells; type: functional, cell-based; details: Homo sapiens
[16] = tested on: BJ; test: cytotoxicity toward BJ-TERT-LT-ST fibroblasts, dose response, cell-based, RAS-independent, luminescence (AID 1935); type: functional; details: Homo sapiens;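 note: BJ fibroblasts immortalized with TERT plus LT and ST oncogenes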
[17] = cytotoxicity toward DRD oncogenic fibroblasts, dose response, cell-based, non-viral oncogenic, luminescence (AID 1934); type: functional; details: Homo sapiens
[18] = cytotoxicity in HEK-293T cells, dose response, cytotoxicity control for BCR NF-kB inhibitor project, luminescence, B-cell screen hits (AID 489021); type: functional, cell-based;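 note: HEK-293T cells carrying an NF-kB luciferase reporter; cells exposed to compound for about 14 hours before viability readout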
[19] = tested on: BJ; test: cytotoxicity toward Ras-transformed BJeLR fibroblasts, dose response, cell-based, alamar blue fluorescence, cherrypicked samples (AID 2631); type: functional; details: Homo sapiens;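 note: confirmatory dose-response assay in RAS-dependent BJ fibroblasts engineered with TERT, LT and ST, with cytotoxicity read by fluorescence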
[20] = tested on: INS1; test: beta cell apoptosis inhibitors, cytokine rescue, dose response, luminescence, retest (AID 449756); type: functional, cell-based; details: Rattus norvegicus;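 note: cell death triggered by IL-1 beta plus TNF-alpha plus IFN-gamma mixture; protective hits raise ATP signal compared with cytokine alone wells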
[21] = NIH-3T3 fibroblast cytotoxicity, dose response, cytotoxicity control, cell-based, fluorescence, Alamar Blue, secondary assay (AID 2327); type: functional;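 note: NIH-3T3 mouse fibroblasts cultured with fluconazole at 8 µg/mL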
[22] = C. albicans growth with fluconazole, confirmation, fluorescence, retest (AID 2467); type: functional, cell-based
[23] = target: T2, Serine/threonine-protein phosphatase (Candida dubliniensis (strain CD36 / CBS 7987 / NCPF 3949 / NRRLY-17841) (Yeast), UniProt B9W6M3); test: calcineurin pathway inhibitors in yeast reporter, dose response, S. cerevisiae, CDRE-lacZ, luminescence, secondary (AID 2388); type: functional, cell-based;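 note: yeast reporter cells carrying a calcineurin-responsive lacZ construct stimulated with calcium chloride; luminescent beta-galactosidase reporter signal in whole cells rather than isolated phosphatase activity; potency for inhibition where a drop in reporter signal means calcineurin blockade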
T2 sequence (B9W6M3 whole entry): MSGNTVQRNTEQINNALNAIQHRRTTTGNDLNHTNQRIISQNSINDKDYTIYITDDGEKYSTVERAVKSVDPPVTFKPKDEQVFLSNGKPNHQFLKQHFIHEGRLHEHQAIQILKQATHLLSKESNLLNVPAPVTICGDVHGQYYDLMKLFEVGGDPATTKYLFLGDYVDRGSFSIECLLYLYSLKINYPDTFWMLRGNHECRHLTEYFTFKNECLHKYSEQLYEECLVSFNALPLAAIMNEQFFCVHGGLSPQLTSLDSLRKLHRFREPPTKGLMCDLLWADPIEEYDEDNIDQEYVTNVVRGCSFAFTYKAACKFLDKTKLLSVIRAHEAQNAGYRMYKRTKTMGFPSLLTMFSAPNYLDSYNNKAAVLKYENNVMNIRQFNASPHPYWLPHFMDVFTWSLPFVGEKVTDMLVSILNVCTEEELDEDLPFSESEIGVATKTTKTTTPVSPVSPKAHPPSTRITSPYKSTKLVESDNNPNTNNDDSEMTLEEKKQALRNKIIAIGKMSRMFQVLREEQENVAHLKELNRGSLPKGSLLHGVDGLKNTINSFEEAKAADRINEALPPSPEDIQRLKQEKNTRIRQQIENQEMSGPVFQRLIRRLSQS

[24] = target: ATP-dependent molecular chaperone HSP82 (Candida albicans (strain WO-1) (Yeast), UniProt C4YTQ8); test: loss of DOC-induced GRE-beta-galactosidase reporter signal, dose response, Hsp90 inhibitor project, S. cerevisiae, luminescence (AID 2400); type: functional, cell-based;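 note: beta-galactosidase luminescence from glucocorticoid response element reporter as proxy for Hsp90 function; inhibitor potency where signal loss means Hsp90 inhibition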
[25] = target: T3, Sentrin-specific protease 1 (Homo sapiens, UniProt Q9P0U3); test: potency of human SENP1 inhibitors, dose response, biochemical, kinetic FRET (AID 651697); type: functional; details: read-out: IC50_Mean
T3 sequence (Q9P0U3 whole entry): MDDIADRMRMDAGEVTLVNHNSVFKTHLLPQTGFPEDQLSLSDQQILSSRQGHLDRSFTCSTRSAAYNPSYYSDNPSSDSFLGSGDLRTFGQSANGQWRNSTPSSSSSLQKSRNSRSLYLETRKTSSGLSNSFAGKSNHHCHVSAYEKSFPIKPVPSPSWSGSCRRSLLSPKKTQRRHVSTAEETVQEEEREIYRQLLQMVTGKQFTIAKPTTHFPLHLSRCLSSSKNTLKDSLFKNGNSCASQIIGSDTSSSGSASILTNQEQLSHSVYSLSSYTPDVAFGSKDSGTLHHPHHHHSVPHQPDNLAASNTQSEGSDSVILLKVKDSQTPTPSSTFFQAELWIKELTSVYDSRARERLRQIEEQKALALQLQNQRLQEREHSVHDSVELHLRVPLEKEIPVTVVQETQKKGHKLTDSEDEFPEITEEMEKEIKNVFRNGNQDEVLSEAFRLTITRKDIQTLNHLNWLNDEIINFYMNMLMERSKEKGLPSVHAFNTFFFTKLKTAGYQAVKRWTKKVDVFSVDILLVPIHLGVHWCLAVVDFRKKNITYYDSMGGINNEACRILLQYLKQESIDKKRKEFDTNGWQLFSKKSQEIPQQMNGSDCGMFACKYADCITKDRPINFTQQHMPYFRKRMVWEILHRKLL

[26] = target: T3, Sentrin-specific protease 1; test: Dose response confirmation of small molecule inhibitors of the catalytic domain of the SUMO protease, SENP1 in a FRET assay.; type: functional; details: read-out: IC50_Mean
[27] = target: Large T antigen (Simian virus 40, UniProt P03070); type: functional, Betapolyomavirus macacae;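 note: Confirmatory-stage PubChem screen for compounds that inhibit SV40 T antigen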
[28] = target: DNA dC->dU-editing enzyme APOBEC-3A (Homo sapiens, UniProt P31941); test: APOBEC3A DNA deaminase inhibitors, dose response, biochemical (AID 504722); type: functional
[29] = target: Glucose-6-phosphate 1-dehydrogenase (Homo sapiens, UniProt P11413); test: human G6PD enzyme inhibitors, dose response, selectivity assay for P. falciparum G6PD inhibitor project, biochemical, fluorescence (AID 504792); type: functional
[30] = target: DNA dC->dU-editing enzyme APOBEC-3G (Homo sapiens, UniProt Q9HC16); test: Dose Response confirmation of small molecule APOBEC3G DNA Deaminase Inhibitors via a fluorescence-based single-stranded DNA deaminase assay. [Related pubchem assays (depositor defined):AID493012, AID493028]; type: functional
[31] = target: Mitochondrial peptide methionine sulfoxide reductase (Bos taurus, UniProt P54149); test: Absorbance-based biochemical high throughput dose response assay for activators of Methionine sulfoxide reductase A (MsrA).; type: functional
[32] = control 3'UTR Renilla luciferase suppression, dose response, counter-screen for Shn3 inhibitor project, cell-based, Clone20-Shn3RL, cherry-picked (AID 624133); type: functional
[33] = Fluorescence-based cell-based high throughput dose response assay for inhibitors of the interaction of nucleotide-binding oligomerization domain containing 2 (NOD2) and the receptor-interacting serine-threonine kinase 2 (RIPK2).; type: functional; details: Homo sapiens
[34] = target: Beta Lactamase (Pseudomonas aeruginosa, UniProt Q932Y6); test: beta-lactamase reporter inhibitor potency, dose response, artefact control for NOD2-RIPK2 interaction inhibitor project, BLA reporter cells, FRET fluorescence (AID 651552); type: functional, cell-based
[35] = inhibitors of PGC1a acetylation in cells, dose response, cell-based, cherry-picked samples (AID 720514); type: functional;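 note: potency may reflect raised or lowered acetylation signal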
[36] = target: T4, Rac GTPase-activating protein 1 (Homo sapiens, UniProt Q9H0H5); test: MgcRacGAP GTPase-activating activity inhibitors, confirmation, biochemical, ADP Hunter fluorescence, primary and confirmatory (AID 624330); type: functional
T4 sequence (Q9H0H5 whole entry): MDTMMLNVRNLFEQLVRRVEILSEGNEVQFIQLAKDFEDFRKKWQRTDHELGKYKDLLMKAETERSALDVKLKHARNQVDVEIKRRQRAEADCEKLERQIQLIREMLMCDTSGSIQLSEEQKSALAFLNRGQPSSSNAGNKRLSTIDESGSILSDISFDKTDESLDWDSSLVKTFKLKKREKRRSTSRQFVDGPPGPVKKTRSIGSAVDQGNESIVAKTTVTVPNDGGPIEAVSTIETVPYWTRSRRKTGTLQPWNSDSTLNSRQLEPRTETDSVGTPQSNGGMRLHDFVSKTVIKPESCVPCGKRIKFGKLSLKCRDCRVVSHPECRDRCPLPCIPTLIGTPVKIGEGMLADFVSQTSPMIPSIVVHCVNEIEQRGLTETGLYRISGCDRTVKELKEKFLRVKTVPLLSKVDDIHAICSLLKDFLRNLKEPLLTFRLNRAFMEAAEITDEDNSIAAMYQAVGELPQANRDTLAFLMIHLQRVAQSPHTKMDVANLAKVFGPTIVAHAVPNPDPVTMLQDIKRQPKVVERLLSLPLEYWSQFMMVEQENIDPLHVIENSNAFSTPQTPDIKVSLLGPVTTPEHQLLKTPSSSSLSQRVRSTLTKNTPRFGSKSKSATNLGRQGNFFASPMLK

Large T antigen, sequence (P03070 whole entry): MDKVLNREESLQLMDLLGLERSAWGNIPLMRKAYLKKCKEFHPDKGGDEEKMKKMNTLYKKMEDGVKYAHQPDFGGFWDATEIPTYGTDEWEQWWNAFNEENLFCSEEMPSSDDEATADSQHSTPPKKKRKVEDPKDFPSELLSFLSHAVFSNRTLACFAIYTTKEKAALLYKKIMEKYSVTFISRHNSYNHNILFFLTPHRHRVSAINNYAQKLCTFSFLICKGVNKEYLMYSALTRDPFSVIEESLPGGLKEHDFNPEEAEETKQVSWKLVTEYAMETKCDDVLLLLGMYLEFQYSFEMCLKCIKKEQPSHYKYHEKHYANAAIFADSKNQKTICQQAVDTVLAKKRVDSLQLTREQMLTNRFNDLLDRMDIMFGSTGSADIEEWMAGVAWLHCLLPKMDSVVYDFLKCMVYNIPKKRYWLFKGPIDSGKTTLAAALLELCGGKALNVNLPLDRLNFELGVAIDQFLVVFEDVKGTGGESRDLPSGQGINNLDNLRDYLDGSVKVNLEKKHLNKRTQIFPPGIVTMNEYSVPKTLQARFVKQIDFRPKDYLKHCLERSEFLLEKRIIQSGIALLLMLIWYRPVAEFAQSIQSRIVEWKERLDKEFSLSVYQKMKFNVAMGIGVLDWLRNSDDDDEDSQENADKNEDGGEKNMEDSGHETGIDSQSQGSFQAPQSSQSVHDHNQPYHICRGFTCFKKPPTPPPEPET
Nuclear receptor subfamily 0 group B member 1, sequence (P51843 whole entry): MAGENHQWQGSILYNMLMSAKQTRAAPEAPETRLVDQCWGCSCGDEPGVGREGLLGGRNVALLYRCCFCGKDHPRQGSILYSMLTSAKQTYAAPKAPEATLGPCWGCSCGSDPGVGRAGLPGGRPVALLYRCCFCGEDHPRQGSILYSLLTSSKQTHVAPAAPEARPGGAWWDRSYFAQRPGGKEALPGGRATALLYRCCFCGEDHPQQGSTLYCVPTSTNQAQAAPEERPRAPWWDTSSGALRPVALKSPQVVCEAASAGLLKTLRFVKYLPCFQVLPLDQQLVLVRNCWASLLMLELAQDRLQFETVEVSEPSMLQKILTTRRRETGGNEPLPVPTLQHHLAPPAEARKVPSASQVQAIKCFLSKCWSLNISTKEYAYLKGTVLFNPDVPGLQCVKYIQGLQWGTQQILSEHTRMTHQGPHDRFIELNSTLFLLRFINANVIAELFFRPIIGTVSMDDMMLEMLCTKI
T1 sequence (P65502 whole entry): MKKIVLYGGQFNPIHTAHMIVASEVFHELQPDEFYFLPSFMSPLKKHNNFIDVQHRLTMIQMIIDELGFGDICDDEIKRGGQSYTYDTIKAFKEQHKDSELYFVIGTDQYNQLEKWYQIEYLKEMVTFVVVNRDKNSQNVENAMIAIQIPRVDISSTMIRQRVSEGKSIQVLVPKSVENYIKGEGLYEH
ATP-dependent molecular chaperone HSP82, sequence (C4YTQ8 whole entry): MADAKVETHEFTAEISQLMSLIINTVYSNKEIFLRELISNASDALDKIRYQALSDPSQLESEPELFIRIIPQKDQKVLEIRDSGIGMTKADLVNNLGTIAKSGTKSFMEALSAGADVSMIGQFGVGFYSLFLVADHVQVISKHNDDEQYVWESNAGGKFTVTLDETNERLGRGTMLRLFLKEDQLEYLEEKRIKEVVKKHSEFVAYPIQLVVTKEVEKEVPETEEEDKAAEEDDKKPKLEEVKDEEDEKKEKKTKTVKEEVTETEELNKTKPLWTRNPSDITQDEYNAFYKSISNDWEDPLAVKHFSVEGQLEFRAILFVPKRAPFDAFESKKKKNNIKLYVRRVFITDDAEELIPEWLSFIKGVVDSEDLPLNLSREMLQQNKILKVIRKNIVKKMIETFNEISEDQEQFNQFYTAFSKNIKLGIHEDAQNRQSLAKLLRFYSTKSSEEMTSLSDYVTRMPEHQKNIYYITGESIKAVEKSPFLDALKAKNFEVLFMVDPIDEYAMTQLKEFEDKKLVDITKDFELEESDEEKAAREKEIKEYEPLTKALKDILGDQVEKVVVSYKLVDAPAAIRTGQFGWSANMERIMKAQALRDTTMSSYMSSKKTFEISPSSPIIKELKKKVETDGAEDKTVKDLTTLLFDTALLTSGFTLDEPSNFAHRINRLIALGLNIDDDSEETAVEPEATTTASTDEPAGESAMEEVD
Protein Wnt-3a, sequence (P27467 whole entry): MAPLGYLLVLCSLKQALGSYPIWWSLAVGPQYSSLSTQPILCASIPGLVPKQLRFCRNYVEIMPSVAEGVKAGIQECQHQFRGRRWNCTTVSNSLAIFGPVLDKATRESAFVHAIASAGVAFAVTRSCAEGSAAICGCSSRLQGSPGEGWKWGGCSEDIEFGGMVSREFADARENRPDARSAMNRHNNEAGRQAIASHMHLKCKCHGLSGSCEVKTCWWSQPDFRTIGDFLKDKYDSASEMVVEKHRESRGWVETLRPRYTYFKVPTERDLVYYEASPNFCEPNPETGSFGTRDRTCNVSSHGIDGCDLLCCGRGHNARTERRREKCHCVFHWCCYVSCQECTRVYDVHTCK
DNA dC->dU-editing enzyme APOBEC-3G, sequence (Q9HC16 whole entry): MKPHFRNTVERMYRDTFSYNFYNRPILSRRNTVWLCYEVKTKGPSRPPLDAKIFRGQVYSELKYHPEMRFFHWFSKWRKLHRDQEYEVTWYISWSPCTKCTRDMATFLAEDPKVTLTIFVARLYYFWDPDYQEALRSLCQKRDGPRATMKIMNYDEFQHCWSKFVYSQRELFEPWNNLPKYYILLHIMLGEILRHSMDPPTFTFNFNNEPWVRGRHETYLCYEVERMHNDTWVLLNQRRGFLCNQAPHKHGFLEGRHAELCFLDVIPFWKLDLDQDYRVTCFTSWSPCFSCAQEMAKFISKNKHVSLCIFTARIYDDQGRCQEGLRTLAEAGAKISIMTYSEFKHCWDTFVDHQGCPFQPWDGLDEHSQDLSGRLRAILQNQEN
Glucose-6-phosphate 1-dehydrogenase, sequence (P11413 whole entry): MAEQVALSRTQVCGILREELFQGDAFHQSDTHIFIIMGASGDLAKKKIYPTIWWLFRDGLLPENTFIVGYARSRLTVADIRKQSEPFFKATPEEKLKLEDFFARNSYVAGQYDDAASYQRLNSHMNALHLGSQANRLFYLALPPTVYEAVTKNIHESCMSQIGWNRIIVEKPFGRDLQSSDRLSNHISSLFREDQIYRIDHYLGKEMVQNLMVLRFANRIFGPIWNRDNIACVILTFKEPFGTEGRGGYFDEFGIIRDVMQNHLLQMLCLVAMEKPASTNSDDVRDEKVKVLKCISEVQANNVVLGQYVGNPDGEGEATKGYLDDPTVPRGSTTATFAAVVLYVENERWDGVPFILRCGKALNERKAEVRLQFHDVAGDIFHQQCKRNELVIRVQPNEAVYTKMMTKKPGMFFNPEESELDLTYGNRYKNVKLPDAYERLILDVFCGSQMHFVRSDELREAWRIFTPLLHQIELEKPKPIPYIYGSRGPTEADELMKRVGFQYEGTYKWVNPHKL
Beta Lactamase, sequence (Q932Y6 whole entry): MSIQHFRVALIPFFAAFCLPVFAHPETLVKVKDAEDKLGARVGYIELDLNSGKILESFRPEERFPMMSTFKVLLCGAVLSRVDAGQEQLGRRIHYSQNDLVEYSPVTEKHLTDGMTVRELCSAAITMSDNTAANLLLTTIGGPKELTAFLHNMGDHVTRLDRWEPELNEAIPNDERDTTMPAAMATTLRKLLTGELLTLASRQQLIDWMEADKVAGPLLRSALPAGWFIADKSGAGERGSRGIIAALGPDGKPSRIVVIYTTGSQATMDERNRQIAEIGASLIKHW
DNA dC->dU-editing enzyme APOBEC-3A, sequence (P31941 whole entry): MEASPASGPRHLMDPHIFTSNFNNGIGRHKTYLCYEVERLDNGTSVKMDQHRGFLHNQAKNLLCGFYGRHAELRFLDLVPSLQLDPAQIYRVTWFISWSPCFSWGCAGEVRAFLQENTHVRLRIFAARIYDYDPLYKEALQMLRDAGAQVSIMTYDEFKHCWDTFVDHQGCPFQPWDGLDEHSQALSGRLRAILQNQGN
Mitochondrial peptide methionine sulfoxide reductase, sequence (P54149 whole entry): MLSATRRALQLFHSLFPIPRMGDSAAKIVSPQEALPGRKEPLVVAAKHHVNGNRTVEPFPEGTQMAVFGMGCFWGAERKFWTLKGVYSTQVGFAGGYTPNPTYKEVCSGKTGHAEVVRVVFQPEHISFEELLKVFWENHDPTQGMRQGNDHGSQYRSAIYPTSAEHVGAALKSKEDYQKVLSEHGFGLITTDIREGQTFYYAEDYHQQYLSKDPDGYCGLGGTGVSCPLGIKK

COc1ccc(S(=O)(=O)Nc2cc(C)cc(C)n2)c2ccccc12
AC50 [1]: 13.4 µM (active)

COc1ccc(C(=O)CSc2nccn2C)c(OC)c1
IC50 [2]: > 67.5 µM (inactive) | IC50 [3]: > 67.5 µM (inactive)

COc1cc(NS(=O)(=O)c2ccc(C)cc2C)cc(OC)c1OC
AC50 [4]: 4.95 µM (active) | AC50 [5]: 5.37 µM (active) | IC50 [6]: 1.38 µM (active)

N=C1SC(c2ccccc2)C(=O)N1c1ncc(Cc2ccccc2Cl)s1 (stereo unspecified)
EC50 [7]: 0.249 µM (active) | EC50 [8]: 3.47 µM (active) | IC50 [9]: 4.35 µM (active) | IC50 [10]: 16 µM (active)

CC1CC(C)CN(S(=O)(=O)c2ccc(C(=O)NCCCn3ccnc3)cc2)C1 (stereo unspecified)
EC50 [11]: 0.527 µM (active) | EC50 [12]: > 150 µM (not active) | EC50 [13]: 0.873 µM (active) | EC50 [14]: 0.163 µM (active) | EC50 [15]: 5.76 µM (inconclusive) | EC50 [16]: 4.2 µM (inconclusive) | EC50 [17]: 10 µM (inconclusive) | IC50 [18]: > 80 µM (inactive) | EC50 [19]: 5.61 µM (active) | AC50 [20]: 0.437 µM (active)

CN(C)S(=O)(=O)Oc1cccc(C(=O)Nc2cccc(Cl)c2)c1
EC50 [21]: > 150 µM (inactive) | EC50 [22]: 2.39 µM (active) | EC50 [23]: > 180 µM (inactive) | EC50 [24]: 24.7 µM (active)

COc1ccccc1NC(CC(=O)c1ccccc1)C(=O)OCC(=O)c1ccc(Br)cc1 (stereo unspecified)
IC50 [2]: > 67.5 µM (inactive) | IC50 [3]: > 0.278 µM (active)

COc1ccc(C2c3ccc4ccccc4c3Oc3ncn(CCN4CCOCC4)c(=N)c32)cc1 (stereo unspecified)
EC50 [21]: > 160 µM (inactive) | EC50 [22]: 1.9 µM (active) | EC50 [23]: > 180 µM (inactive) | EC50 [24]: > 160 µM (inactive)

O=[N+]([O-])c1ccc(C=NNc2ccccc2)cc1
IC50 [25]: 21.5 µM (inactive) | IC50 [26]: 7.2 µM (active)

c1ccc(SSc2ccccn2)nc1
IC50 [27]: > 100 µM (active) | IC50 [28]: > 100 µM (inactive) | IC50 [29]: > 80 µM (inactive) | IC50 [30]: 3.88 µM (active) | EC50 [31]: > 104 µM (inactive)

CC1=CC(=O)C=C(C)C1=NOc1ccccc1[N+](=O)[O-]
EC50 [12]: 17.2 µM (inconclusive) | EC50 [15]: 11.1 µM (inconclusive) | EC50 [16]: > 75 µM (not active) | EC50 [17]: > 150 µM (not active) | EC50 [19]: > 66.7 µM (inactive)

COc1ccc(CC2NCC(O)C2OC(C)=O)cc1 (stereo unspecified)
AC50 [4]: < 0.26 µM (active) | AC50 [32]: 1.09 µM (active) | IC50 [33]: 49.7 µM (inactive) | IC50 [34]: 49.7 µM (inactive) | AC50 [35]: 0.308 µM (active)

CCOc1cc(/C=C2\SC(=O)N=C2N)ccc1O
IC50 [27]: 4.73 µM (active) | IC50 [25]: 10.9 µM (active) | IC50 [26]: 18.2 µM (active) | IC50 [36]: 13 µM (active)
